Like-named read-outs stand apart in the source and are kept apart here.
Columns and labels:
RPMI-8226 = test: NCI-60 SRB screen; format: cell-based; settings: Homo sapiens, single dose 10^−5 M, read-out: Growth inhibition (%)
SR = test: NCI-60 SRB screen; format: cell-based; settings: Homo sapiens, single dose 10^−5 M, read-out: Growth inhibition (%)
SF-539 = test: NCI-60 SRB screen; format: cell-based, human; settings: Homo sapiens, single dose 10^−5 M, read-out: Growth inhibition (%)
SNB-19 = test: NCI-60 SRB screen; format: cell-based; settings: Homo sapiens, single dose 10^−5 M, read-out: Growth inhibition (%)
SNB-75 = test: NCI-60 SRB screen; format: cell-based, human; settings: Homo sapiens, single dose 10^−5 M, read-out: Growth inhibition (%)
U251 = test: NCI-60 SRB screen; format: cell-based, human; settings: Homo sapiens, U-251, single dose 10^−5 M, read-out: Growth inhibition (%)
MDA-MB-435 = test: NCI-60 SRB screen; format: cell-based; settings: Homo sapiens, MDA-MB-435, read-out: Growth inhibition (%)
OVCAR-5 = test: NCI-60 SRB screen; format: cell-based, human; settings: Homo sapiens, single dose 10^−5 M, read-out: Growth inhibition (%)
A498 = test: NCI-60 SRB screen; format: cell-based, human; settings: Homo sapiens, single dose 10^−5 M, read-out: Growth inhibition (%)
PC-3 = test: NCI-60 SRB screen; format: cell-based, human; settings: Homo sapiens, single dose 10^−5 M, read-out: Growth inhibition (%)
DU-145 = test: NCI-60 SRB screen; format: cell-based, human; settings: Homo sapiens, single dose 10^−5 M, read-out: Growth inhibition (%)
MCF7 = test: NCI-60 SRB screen; format: cell-based, human; settings: Homo sapiens, read-out: Growth inhibition (%)
MDA-MB-231/ATCC = test: NCI-60 SRB screen; format: cell-based, human; settings: Homo sapiens, single dose 10^−5 M, read-out: Growth inhibition (%)
BT-549 = test: NCI-60 SRB screen; format: cell-based, human; settings: Homo sapiens, single dose 10^−5 M, read-out: Growth inhibition (%)
T-47D = test: NCI-60 SRB screen; format: cell-based, human; settings: Homo sapiens, T47D, single dose 10^−5 M, read-out: Growth inhibition (%)
MDA-MB-468 = test: NCI-60 SRB screen; format: cell-based, human; settings: Homo sapiens, single dose 10^−5 M, read-out: Growth inhibition (%)
[1] = single dose 10^−5 M, MCF-7, Breast cancer

Row | SMILES | inhibition at 10 µM (RPMI-8226; RPMI-8226) [%] | inhibition at 10 µM (SR) [%] | inhibition at 10 µM (SF-539; SF-539) [%] | inhibition at 10 µM (SNB-19; SNB-19) [%] | inhibition at 10 µM (SNB-75; SNB-75) [%] | inhibition at 10 µM (U251; U251) [%] | inhibition at 10 µM (MDA-MB-435) [%] | inhibition at 10 µM (OVCAR-5; OVCAR-5) [%] | inhibition at 10 µM (A498; A498) [%] | melting point [°C] | further results
1 | COc1ccc(C=C2Sc3c(F)cccc3C2=O)c(OC)c1 [Compound 2a, 2-(2,4-Dimethoxybenzylidene)-7-fluoro[1]benzothiophen-3(2H)-one] | -8.46 | 6.3 | -0.64 | -2.1 | 12.6 | -7.91 | -0.27 | -9.42 | -4.03 | 195 to 197 | –
2 | O=C1C(=Cc2ccccc2[N+](=O)[O-])Sc2c(F)cccc21 [Compound 2c, 7-Fluoro-2-(2-nitrobenzylidene)[1]benzothiophen-3(2H)-one] | 30.6 | 37.2 | 3.65 | 14.2 | -1.55 | 32.5 | -12.1 | – | 55.1 | 170 to 172 | –
3 | COc1ccc(C2NC(=O)C(Cl)c3c2sc2c(F)cccc32)c(OC)c1 (stereo not drawn) [Compound 4a, 4-Chloro-1-(2,4-Dimethoxyphenyl)-8-fluoro-1,2-dihydro[1]benzothieno [2,3-c]pyridine-3(4H)-one] | 11.7 | 36.6 | 3.36 | 0.33 | 22.3 | 0.4 | 8.55 | -3.64 | 14.9 | 120 to 122 | –
4 | COc1ccc(C2NC(=O)C(Cl)c3c2sc2c(F)cccc32)cc1 (stereo not drawn) [Compound 4b, 4-Chloro-8-fluoro-1-(4-methoxyphenyl)-1,2-dihydro[1]benzothieno[2,3-c] pyridine-3(4H)-one] | 7.32 | 39.3 | 15.8 | 7.47 | 22.8 | 21.1 | 33.7 | -12.9 | 11.1 | 154 to 156 | –
5 | O=C1NC(c2ccccc2[N+](=O)[O-])c2sc3c(F)cccc3c2C1Cl (stereo not drawn) [Compound 4c, 4-Chloro-8-fluoro-1-(2-nitrophenyl)-1,2-dihydro[1]benzothieno[2,3-c] pyridine-3(4H)-one] | 5.9 | 0.2 | 3.36 | -2.16 | 11.7 | 8.82 | -7.17 | -2.88 | -6.23 | 110 to 112 | –
6 | O=C1NC(c2cccc([N+](=O)[O-])c2)c2sc3c(F)cccc3c2C1N1CCOCC1 (stereo not drawn) [Compound 6b, 8-Fluoro-4-morpholino-1(3-nitrophenyl)-1,2-dihydro[1]benzothieno[2,3-c]pyridin-3(4H)-one] | 14.4 | 14.4 | – | – | – | – | -9.63 | -6.35 | 13.5 | 250 to 251 | inhibition at 10 µM (PC-3; PC-3): 10.4%; inhibition at 10 µM (DU-145; DU-145): -9.4%; inhibition at 10 µM (MCF7; MCF-7, single dose 10^−5 M): 10.3%; inhibition at 10 µM (MDA-MB-231/ATCC; MDA-MB-231, MDAMB231/ATCC): 7.92%; inhibition at 10 µM (BT-549; BT-549): 1.66%; inhibition at 10 µM (T-47D): 15.4%; inhibition at 10 µM (MDA-MB-468; MDA-MB-468): -3.26%
7 | O=[N+]([O-])c1cccc(C2NC(Cl)=C(Cl)c3c2sc2c(F)cccc32)c1 (stereo not drawn) [Compound 7a, 3,4-Dichloro-8-fluoro-1-(3-nitrophenyl)-1,2-dihydro[1]benzothieno[2,3-c] pyridine] | 11.5 | 16.2 | – | – | – | – | -9.15 | 3.21 | 3.36 | 120 to 122 | inhibition at 10 µM (PC-3; PC-3): 3.11%; inhibition at 10 µM (DU-145; DU-145): -4.75%; inhibition at 10 µM (MCF7; MCF-7, single dose 10^−5 M): 5.05%; inhibition at 10 µM (MDA-MB-231/ATCC; MDA-MB-231, MDAMB231/ATCC): 8.09%; inhibition at 10 µM (BT-549; BT-549): 0.77%; inhibition at 10 µM (T-47D): 17.7%; inhibition at 10 µM (MDA-MB-468; MDA-MB-468): -4.71%
8 | N#CC1=C(Cl)NC(c2cccc([N+](=O)[O-])c2)c2sc3c(F)cccc3c21 (stereo not drawn) [Compound 7b, 3-Chloro-4-cyano-8-fluoro-1-(3-nitrophenyl)-1,2-dihydro[1]benzothieno [2,3-c]pyridine] | – | – | – | – | – | – | -8.18 | – | – | 140 to 142 | inhibition at 10 µM (RPMI-8226; RPMI-8226, Leukaemia): 12.7%; inhibition at 10 µM (SR; Leukaemia): 15.9%; inhibition at 10 µM (SF-539; SF-539, CNS cancer): 3.78%; inhibition at 10 µM (SNB-19; SNB-19, CNS cancer): -0.67%; inhibition at 10 µM (SNB-75; SNB-75, CNS cancer): 8.28%; inhibition at 10 µM (U251; U251, CNS cancer): -7.36%; inhibition at 10 µM (OVCAR-5; OVCAR-5, Ovarian cancer): -3.54%; inhibition at 10 µM (A498; A498, Renal cancer): 19.7%; inhibition at 10 µM (PC-3; PC-3, Prostate cancer): 3.5%; inhibition at 10 µM (DU-145; DU-145, Prostate cancer): -14.2%; inhibition at 10 µM (MCF7; [1]): 8.22%; inhibition at 10 µM (MDA-MB-231/ATCC; MDA-MB 231/ATCC, Breast cancer): 7.25%; inhibition at 10 µM (BT-549; BT-549, Breast cancer): -2.93%; inhibition at 10 µM (T-47D; Breast cancer): -9.14%; inhibition at 10 µM (MDA-MB-468; MDA-MB-468, Breast cancer): -7.25%
9 | O=[N+]([O-])c1cccc(C2NC(N3CCCCC3)=C(Cl)c3c2sc2c(F)cccc32)c1 (stereo not drawn) [Compound 8c, 4-Chloro-3-(piperidin-1-yl)-8-fluoro-1-(3-nitrophenyl)-1,2-dihydro [1]benzothieno[2,3-c]pyridine] | – | – | – | – | – | – | 2 | – | – | 241 to 243 | inhibition at 10 µM (RPMI-8226; RPMI-8226, Leukaemia): 8.74%; inhibition at 10 µM (SR; Leukaemia): 10.1%; inhibition at 10 µM (SF-539; SF-539, CNS cancer): -6.63%; inhibition at 10 µM (SNB-19; SNB-19, CNS cancer): -3.36%; inhibition at 10 µM (SNB-75; SNB-75, CNS cancer): 22.4%; inhibition at 10 µM (U251; U251, CNS cancer): -7.81%; inhibition at 10 µM (OVCAR-5; OVCAR-5, Ovarian cancer): -1.61%; inhibition at 10 µM (PC-3; PC-3, Prostate cancer): 11.9%; inhibition at 10 µM (DU-145; DU-145, Prostate cancer): -12.5%; inhibition at 10 µM (MCF7; [1]): 23.3%; inhibition at 10 µM (MDA-MB-231/ATCC; MDA-MB 231/ATCC, Breast cancer): 13.9%; inhibition at 10 µM (BT-549; BT-549, Breast cancer): -10.5%; inhibition at 10 µM (T-47D; Breast cancer): 17.5%; inhibition at 10 µM (MDA-MB-468; MDA-MB-468, Breast cancer): -13.9%

Source: PMC8330742, “New benzothieno[2,3-c]pyridines as non-steroidal CYP17 inhibitors: design, synthesis, anticancer screening, apoptosis induction, and in silico ADME profile studies” (Journal of Enzyme Inhibition and Medicinal Chemistry, 2021)
